First the molecules themselves.
B1: human steroid 5-α-reductase (Homo sapiens) (protein)
chain: MQVQCQQSPVLAGSATLVALGALALYVAKPSGYGKHTESLKPAATRLPARAAWFLQELPSFAVPAGILARQPLSLFGPPGTVLLGLFCLHYFHRTFVYSLLNRGRPYPAILILRGTAFCTGNGVLQGYYLIYCAEYPDGWYTDIRFSLGVFLFILGMGINIHSDYILRQLRKPGEISYRIPQGGLFTYVSGANFLGEIIEWIGYALATWSLPALAFAFFSLCFLGLRAFHHHRFYLKMFEDYPKSRKALIPFIF

For one data set, the target named is T1, human steroid 5-α-reductase (Homo sapiens, UniProt P31213).
T1 construct: an aliquot of prostatic particulate solution to a final volume of 0.5 ml of 50 mM sodium citrate, pH 5.0; from tissue; host or cells: hyperplastic human prostate; washed 140,000 x g particulate fraction
T1 sequence (P31213 1-254): B1 chain
Description: Inhibition of human prostatic steroid 5-α-reductase: [14C]-testosterone conversion by prostatic particulate, Dixon plot. It counts as biochemical.
Conditions: not given
As to the method: The potency of several compounds of the invention was tested for potency in inhibiting human steroid 5-α-reductase using tissue from hyperplastic human prostates. In determining potency in inhibiting the human enzyme, the following procedure was employed:
Frozen human prostates were thawed and minced into small pieces ( 5mm³). The tissue was homogenized in 3 to 5 volumes of 20 mM potassium phosphate, pH 6.5, buffer containing 0.33 M sucrose, 1 mM dithiothreitol, and 50 µM NADPH with a Brinkmann Polytron (Sybron Corporation, Westbury, New York). The solution was subjected to sonication for 3 to 5 minutes with a Sonifier (Branson Sonic Power Co.) followed by hand homogenization in a glass-to-glass Dounce homogenizer (Kontes Glass Company, Vineland, New Jersey).
Prostatic particles were obtained by differential centrifugation at 600 or 1000 x g for 20 minutes and 140,000 x g for 60 minutes at 4°C. The pellet obtained from the 140,000 x g centrifugation was washed with 5 to 10 tissue volumes of the buffer described above and recentrifuged at 140,000 x g. The resulting pellet was suspended in 20 mM potassium phosphate buffer, pH 6.5, containing 20% glycerol, 1 mM dithiothreitol, and 50 µM NADPH. The suspended particulate solution was stored at -80°C.
To each tube was added buffer, 20 µl of 10 mM NADPH and an aliquot of prostatic particulate solution to a final volume of 0.5 ml of 50 mM sodium citrate, pH 5.0. […] The organic layer was removed to a second test tube and evaporated to dryness in vacuo. The residue was dissolved in 20 to 30 µl chloroform, spotted on an individual lane of a 20 x 20 cm prechannelled silica gel TLC plate (Si 250F-PA, Baker Chemical) and developed twice with acetone:chloroform (1:9). The radiochemical content in the bands of the substrate and the products was determined with a BIOSCAN Imaging Scanner (Bioscan, Inc., Washington, D.C.). The percent of recovered radiolabel converted to product was calculated, from which enzyme activity was determined.
The experimentally obtained data was computer fitted to a linear function by plotting the reciprocal of the enzyme activity (1/velocity) against the variable inhibitor concentration (Dixon, M. (1953), Biochem. J., 55, 170).
By Ki is commonly meant a measure of affinity in units of concentration, obtained from inhibition or displacement. A high value points to weaker binding. Regarding `Cc1cc2c(cc1C(=O)O)CC[C@@H]1[C@@H]2CC[C@]2(C)[C@@H](C(=O)N(C(C)C)C(C)C)CC[C@@H]12` [17β-(N,N-Diisopropylcarboxamide)-2-methyl-estr-1,3,5(10)-triene-3-carboxylic Acid], the Ki is 57 nM.

Molecule `CC(C)N(C(=O)[C@H]1CC[C@H]2[C@@H]3C=Cc4cc(C(=O)O)ccc4[C@H]3CC[C@]12C)C(C)C` [17β-(N,N-Diisopropylcarboxamide)-estr-1,3,5(10),6-tetraene-3-carboxylic Acid] returned a Ki of 30 nM.

Consider `CC(C)N(C(=O)C1=CC[C@H]2[C@@H]3CCc4cc(C(=O)O)ccc4[C@H]3CC[C@]12C)C(C)C` [17β-(N,N-Diisopropylcarboxamide)-estr-1,3,5(10),16-tetraene-3-carboxylic Acid], for which the Ki is 70 nM.

Turning to `CC(C)N(C(=O)[C@H]1CC[C@H]2[C@@H]3CCc4cc(C(=O)O)ccc4[C@H]3CC[C@]12C)C(C)C` [17β-(N,N-Diisopropylcarboxamide)-estr-1,3,5(10)-triene-3-carboxylic Acid], the Ki was 19 nM.

The molecule `CC(C)N(C(=O)[C@H]1CC[C@H]2[C@@H]3CCc4cc(CC(=O)O)ccc4[C@H]3CC[C@]12C)C(C)C` [17β-(N,N-diisopropylcarboxamide)-estr-1,3,5(10)-triene-3-acetic acid] yielded a Ki of 20 nM.

Take `Cc1c(C(=O)O)ccc2c1CC[C@@H]1[C@@H]2CC[C@]2(C)[C@@H](C(=O)N(C(C)C)C(C)C)CC[C@@H]12` [17β-(N-N-Diisopropylcarboxamide)-4-methyl-estr-1,3,5(10)-triene-3-carboxylic Acid]: the Ki is 270 nM. This Ki lies about 14-fold higher than the previous one.

`CC(C)N(C(=O)[C@H]1CC[C@H]2c3ccc4cc(C(=O)O)ccc4c3CC[C@]12C)C(C)C` [17β-(N-N-Diisopropylcarboxamide)-estr-1,3,5(10),-6,8-pentaene-3-carboxylic Acid] showed a Ki of 40 nM.

In turn, `CC(C)(C)NC(=O)C1=CC[C@H]2[C@@H]3CCc4cc(C(=O)O)ccc4[C@H]3CC[C@]12C` [17β-(N-tert-Butylcarboxamide)-estr-1,3,5(10),-16-tetraene-3-carboxylic Acid] showed a Ki of 60 nM.

In turn, `CC(C)(C)NC(=O)[C@H]1CC[C@H]2[C@@H]3CCc4cc(C(=O)O)ccc4[C@H]3CC[C@]12C` [17β-(N-tert-Butylcarboxamide)-estr-1,3,5(10)-triene-3-carboxylic Acid] showed a Ki of 43 nM.

In another data set the test system is steroid 5-α-reductase. Kind of data set: In vivo inhibition of steroid 5-α-reductase: DHT levels in rat ventral prostate (HPLC, radioimmunoassay). On the set-up: species or system Male Charles River CD rats. As to conditions: rats, dose of 20mg/kg, four hours after compound administration, p<.15. The procedure: One of the compounds of the invention, 17β-(N-tert-butylcarboxamide)-estr-1,3,5(10)-triene-3-carboxylic acid, also was tested for its in vivo potency in inhibiting steroid 5-α-reductase activity. Male Charles River CD rats, 48 days old, weighing approximately 200 gm were administered this compound dissolved in propylene glycol and diluted in normal saline. Following compound administration the animals were sacrificed, the ventral prostates were excised, and DHT levels were measured by the following procedure.
Prostate tissue was excised, trimmed, weighed, minced and washed with phosphate buffer. The tissue then was homogenized in phosphate buffer and extracted by addition of ethyl acetate and mixing on an orbital mixer for forty-five minutes. The ethyl acetate was evaporated, the residue was reconstituted in ethanol, and was centrifuge filtered using […] filter paper. The components then were separated using reverse-phase HPLC collecting the DHT fraction. The fraction was reduced to dryness and reconstituted in standard DHT assay buffer available from Amersham. DHT levels then were measured using standard techniques such as radioimmunoassay.
In the compound-treated rats, prostatic DHT levels were decreased forty percent relative to vehicle-treated controls (p<.15) four hours after compound administration at a dose of 20mg/kg.
On to `CC(C)(C)NC(=O)[C@H]1CC[C@H]2[C@@H]3CCc4cc(C(=O)O)ccc4[C@H]3CC[C@]12C` [17β-(N-tert-Butylcarboxamide)-estr-1,3,5(10)-triene-3-carboxylic Acid], for which the “prostatic DHT levels decreased relative to vehicle-treated controls” value is “forty”.

Substrate in another data set: C[C@]12CC[C@H]3[C@@H](CCC4=CC(=O)CC[C@@]43C)[C@@H]1CC[C@@H]2O
Kind of data set: purified protein, by the assay type. The conditions noted are these: other: substrate of steroid 5-α-reductase, used in equation 1.
The term Km denotes the concentration of substrate that gives half-maximal velocity. On to B1, for which the Km was found to be 4.5 µM.
